Results: PMC6353975, “Design and activity study of a melittin–thanatin hybrid peptide” (AMB Express, 2019)

Tests used:
[1] = thanatin data from the reference; ref Fehlbaum et al. [1996]; cited from earlier work
Text: Table 1 Physicochemical properties of hybrid peptide | column: Isoelectric point (pI)

[2] = system: S. aureus; details: ref Fehlbaum et al. [1996]; Mandard et al. [1998]; cited from earlier work
Text: Thanatin, with a primary structure of […], is a type of antimicrobial peptide consisting of 21 amino acid residues. It is found in the insect Podisus maculiventris. […] It is a peptide consisting of 26 amino acids with a primary structure of […]. […] However, its clinical application is limited by its strong toxicity (mainly hemolytic activity), genotoxicity, and influence on gene expression (Gajski et al. [2016]; Wu et al. [2015]). To ...

[3] = system: S. aureus; assay: In vitro antimicrobial experiments with the recombinant hybrid peptide; format: cell-based, Staphylococcus aureus; details: recombinant peptide from E. coli fusion expression after acid hydrolysis; not obtained pure
Text: To expand the antimicrobial spectrum of thanatin and avoid the toxic effects of melittin, a hybrid antimicrobial peptide was designed according to a previous study (Blondelle and Houghten [1991]). Hemolysis was slightly affected by the removal of C-terminal amino acids of melittin, according to the previous study (Jahnsen et al. [2015]). Four alkaline amino acids (KRKR) are located at the C-terminal amino acids of melittin. The hybrid antimicrobial peptide that includes the full-length of thanatin and the C-terminal of melittin may reveal a stronger and safer antibacterial effect (Leonardo et al. [2012]). The hybrid antimicrobial peptide […]-AGP-[…] was designed using melittin’s C-terminal 15-amino acid mutant GLPL*[…] (L*wild type was A) as the N-terminus and thanatin as the C-terminus and by ligating with AGP to create a hybrid peptide that could inhibit S. aureus without hemolytic activity. The fusion expression of the hybrid peptide was carried out in Escherichia coli by using genetic engineering techniques, and the acid hydrolysis site AP was added to the N-terminus of the hybrid peptide. After the engineered bacteria were fermented, separated, acid-hydrolyzed, and purified, another proline residue was found on the N-terminus of the resulting peptide, that is, […]. […] However, pure hybrid peptide was not obtained due to problems associated with acid hydrolysis. […]

Sequence	Isoelectric point (pI) [1]	inhibition of S. aureus [2]	inhibition of growth of S. aureus [3]
GSKKPVPIIYCNRRTGKCQRM [Thanatin, thanatin, antimicrobial peptide of 21 amino acid residues found in the insect Podisus maculiventris]	10.48	does not inhibit S. aureus	
PGLPLLISWIKRKRQQGSKKPVPIIYCNRRTGKCQRM [hybrid peptide expressed as fusion in Escherichia coli, acid-hydrolyzed, with another proline on the N-terminus; not obtained pure]			inhibited the growth of S. aureus
